In brackets after ≈: the same amount, converted by molar mass. Several values for one entry are separate records, joined by “and”; a condition that tells them apart may be missing. Equal entries are not always repeated. Entries after “also recorded” stand apart in the source; their conditions may differ. Where two headings read alike, the source gives them in different places. Values belong to the compound of their own block, whether it stands above or below them.
How the values were obtained:
[1] = target: ABL1 kinase (Homo sapiens, UniProt P00519); details: for Luminescence, Raw Data (LUM): ADP-Glo
ABL1 kinase, sequence (P00519 whole entry): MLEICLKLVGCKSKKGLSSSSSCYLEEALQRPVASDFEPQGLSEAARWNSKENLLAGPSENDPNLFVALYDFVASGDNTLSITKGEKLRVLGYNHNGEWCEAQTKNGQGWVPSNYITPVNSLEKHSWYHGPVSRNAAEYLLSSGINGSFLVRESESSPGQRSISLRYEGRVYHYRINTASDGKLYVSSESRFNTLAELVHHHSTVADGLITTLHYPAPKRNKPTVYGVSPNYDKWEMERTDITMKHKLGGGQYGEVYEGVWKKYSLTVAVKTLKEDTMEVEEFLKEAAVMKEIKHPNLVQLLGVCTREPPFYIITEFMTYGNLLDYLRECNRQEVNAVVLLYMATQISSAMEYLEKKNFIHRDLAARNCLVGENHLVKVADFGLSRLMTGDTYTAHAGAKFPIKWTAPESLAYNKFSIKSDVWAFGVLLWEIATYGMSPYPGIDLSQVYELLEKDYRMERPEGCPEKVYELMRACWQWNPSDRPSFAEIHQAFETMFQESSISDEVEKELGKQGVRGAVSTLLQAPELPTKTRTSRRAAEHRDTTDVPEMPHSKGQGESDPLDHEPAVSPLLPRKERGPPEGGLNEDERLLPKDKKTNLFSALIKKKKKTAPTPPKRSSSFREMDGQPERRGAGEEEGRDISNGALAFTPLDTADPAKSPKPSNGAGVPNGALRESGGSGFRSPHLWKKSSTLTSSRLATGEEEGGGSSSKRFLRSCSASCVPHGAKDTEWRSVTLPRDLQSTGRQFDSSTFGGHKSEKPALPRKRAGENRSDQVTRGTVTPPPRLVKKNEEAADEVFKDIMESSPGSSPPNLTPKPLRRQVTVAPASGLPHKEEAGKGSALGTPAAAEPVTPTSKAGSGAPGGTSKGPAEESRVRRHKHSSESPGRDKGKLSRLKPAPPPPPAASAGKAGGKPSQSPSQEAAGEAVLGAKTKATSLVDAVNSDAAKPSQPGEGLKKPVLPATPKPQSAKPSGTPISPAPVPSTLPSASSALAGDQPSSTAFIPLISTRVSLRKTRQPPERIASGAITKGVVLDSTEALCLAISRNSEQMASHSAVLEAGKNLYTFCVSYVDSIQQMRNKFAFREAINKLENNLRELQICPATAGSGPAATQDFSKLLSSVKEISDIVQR

[2] = physchem; details: pH 7.4, logD (7.4): experimental distribution coefficient in n-octanol/phosphate-buffered saline
[3] = Metabolic stability in human liver microsomes; details: both, human, liver microsomes (pooled)
[4] = test system: human liver microsomes; experiment: Metabolic stability in human liver microsomes; details: human liver microsomes
[5] = Kinetic solubility in phosphate-buffered saline, pH 7.4; details: 25 °C, pH 7.4, aqueous buffer, kinetic from dmso stock
[6] = Determination of pKa values (potentiometric titration); type: physicochemical; details: methanol-water (1:4) solution of NaCl; titration method; potentiometric acid-base titration at 25 °C in methanol-water (1:4), 150 mM NaCl; read-out: pKa (exp.)
Procedure: Data is obtained by the titration method. Para-methyl benzoic acid (83) is used as a reference. TEXT PRINTED IN THE PICTURE: 83: pKa (exp.): 4.5 ± 0.1 | 84: pKa (exp.): 5.6 ± 0.1 | 47: pKa (exp.): 4.4 ± 0.1 | 54: pKa (exp.): 4.1 ± 0.1 […]
Determination of pKa values
The tendency of a compound to donate proton is measured as its acid ionization constant (dissociation constant), or Ka. A more practical scale of representing acidity is pKa which is the negative logarithm of the Ka (pKa = -log Ka). pKa of a test article is determined by pH-metric method based on potentiometric acid-base titration at 25 °C. The test compounds are dissolved in acidified methanol-water (1:4) solution of NaCl (150 mM, pH 2) and slowly titrated with 0.3 M sodium hydroxide methanol-water (1:4) solution, while recording pH of the solution as a function of NaOH volume used during the titration (construction of the titration curve). Titration of acidified NaCl solution in absence of any compounds is used for blank plotting.5-8 Buffering capacity is calculated in each point of titration curve as the ratio of the NaOH flow (constant) to the pH rise velocity. The pKa value is determined from resulting plot of buffering capacity versus pH as the maximum of buffering capacity. pH-metric method allows to measure pKas in the range of approximately between 2 and 12. […]
meter, pHi®510 (Beckman Coulter, Canada; Cat# A58734). Data analysis was done using GraphPad […]
Sodium hydroxide (Enamine, Ukraine; CAS # 1310-73-2)
Sodium chloride BioXtra, ≥99.5% (AT) (Sigma-Aldrich, USA; Cat # S7653)
Hydrochloric acid (Enamine, Ukraine; CAS # 7647-01-0)
Disposable pipette tips (Eppendorf, German; Matrix and Finntip, Thermo, USA) Polypropylene graduated conical tubes, 50 mL (Kartell, Italy; Cat. # 84002) Polypropylene syringe (10 mL) with tubing (Hemoplast, Ukraine) […]
pH-meter, pHi®510 (Beckman Coulter, Canada; Cat# A58734)
Multichannel Electronic Pipettes 5-50 µL, 10-1000 µL (Thermo, USA)
Magnetic stirrer standard unit (IKA, USA)
Syringe Driver Mdl 100 (KDScientific, USA)

[7] = Thermal and chemical stability; type: physicochemical
Source text: We also examined the thermal and chemical stability of the synthesized 2-oxabicyclo[2.2.2]octanes. As representative examples, we selected three molecules: isomeric acids 47, 54, and amine 52. All 2-oxabicyclo[2.2.2]octanes were crystalline solids that were stable in air. We stored them in stock at room temperature in closed vials and observed no changes according to ^1H NMR after one year. […] Treatment of the selected 2-oxabicyclo[2.2.2]octanes with aq. 1 M HCl, or aq.

Luminescence, Raw Data (LUM) ([1]; 1st run, plate ABL1_CpdsTitr_Read1, single wells, compound 15 nM): 2281 and 2169
Luminescence, Raw Data (LUM) ([1]; 1st run, plate ABL1_CpdsTitr_Read1, single wells, compound 29 nM): 2495 and 2464
Luminescence, Raw Data (LUM) ([1]; 1st run, plate ABL1_CpdsTitr_Read1, single wells, compound 59 nM): 2134 and 2384
Luminescence, Raw Data (LUM) ([1]; 1st run, plate ABL1_CpdsTitr_Read1, single wells, compound 117 nM): 2291 and 2227
Luminescence, Raw Data (LUM) ([1]; 1st run, plate ABL1_CpdsTitr_Read1, single wells, compound 234 nM): 1059 and 1099
Luminescence, Raw Data (LUM) ([1]; 1st run, plate ABL1_CpdsTitr_Read1, single wells, compound 469 nM): 1247 and 1531
Luminescence, Raw Data (LUM) ([1]; 1st run, plate ABL1_CpdsTitr_Read1, single wells, compound 938 nM): 1347 and 1294
Luminescence, Raw Data (LUM) ([1]; 1st run, plate ABL1_CpdsTitr_Read1, single wells, compound 1500 nM): 981 and 1352
Luminescence, Raw Data (LUM) ([1]; 1st run, plate ABL1_CpdsTitr_Read1, single wells, compound 1875 nM): 1222 and 1248
Luminescence, Raw Data (LUM) ([1]; 1st run, plate ABL1_CpdsTitr_Read1, single wells, compound 3000 nM): 1174 and 1245
Luminescence, Raw Data (LUM) ([1]; 1st run, plate ABL1_CpdsTitr_Read1, single wells, compound 3750 nM): 1755 and 1091
Luminescence, Raw Data (LUM) ([1]; 1st run, plate ABL1_CpdsTitr_Read1, single wells, compound 7500 nM): 1238 and 1673
Luminescence, Raw Data (LUM) ([1]; 2nd run, plate ABL1_CpdsTitr2_Read1, single wells, compound 15 nM): 4011 and 3702 and 3072 and 2792
Luminescence, Raw Data (LUM) ([1]; 2nd run, plate ABL1_CpdsTitr2_Read1, single wells, compound 59 nM): 6124 and 5895 and 5335 and 5300
Luminescence, Raw Data (LUM) ([1]; 2nd run, plate ABL1_CpdsTitr2_Read1, single wells, compound 117 nM): 6960 and 7005 and 6427 and 6079
Luminescence, Raw Data (LUM) ([1]; 2nd run, plate ABL1_CpdsTitr2_Read1, single wells, compound 234 nM): 5660 and 5387 and 5152 and 5142
Luminescence, Raw Data (LUM) ([1]; 2nd run, plate ABL1_CpdsTitr2_Read1, single wells, compound 469 nM): 5734 and 5920 and 6125 and 5475
Luminescence, Raw Data (LUM) ([1]; 2nd run, plate ABL1_CpdsTitr2_Read1, single wells, compound 938 nM): 6593 and 6264 and 5955 and 5731
Luminescence, Raw Data (LUM) ([1]; 2nd run, plate ABL1_CpdsTitr2_Read1, single wells, compound 1500 nM): 5936 and 5810 and 4992 and 5316
Luminescence, Raw Data (LUM) ([1]; 2nd run, plate ABL1_CpdsTitr2_Read1, single wells, compound 1875 nM): 6498 and 6064 and 6232 and 5788
Luminescence, Raw Data (LUM) ([1]; 2nd run, plate ABL1_CpdsTitr2_Read1, single wells, compound 3000 nM): 4358 and 4452 and 3565 and 4254
Luminescence, Raw Data (LUM) ([1]; 2nd run, plate ABL1_CpdsTitr2_Read1, single wells, compound 3750 nM): 5848 and 6030 and 5487 and 5693
Luminescence, Raw Data (LUM) ([1]; 2nd run, plate ABL1_CpdsTitr2_Read1, single wells, compound 7500 nM): 5593 and 5845 and 6001 and 5417
logD [2]: 2.7
k el at 2 µM ([3]; pH 7.4): ~0.0001 s⁻¹
microsomal CLint at 2 µM ([3]; pH 7.4): 16 µL/min/mg
remaining at 40 min, 2 µM ([3]; pH 7.4, % Remaining without cofactor, Mean of 2, human liver microsomes, NADPH-cofactor system substituted with phosphate buffer): 106%
remaining at 7 min, 2 µM ([3]; pH 7.4, % Remaining, Mean of 2, human liver microsomes with NADPH, 7 min): 100%
remaining at 0.25 h, 2 µM ([3]; pH 7.4, % Remaining, Mean of 2, human liver microsomes with NADPH, 15 min): 96%
remaining at 25 min, 2 µM ([3]; pH 7.4, % Remaining, Mean of 2, human liver microsomes with NADPH, 25 min): 81%
remaining at 40 min, 2 µM ([3]; pH 7.4, % Remaining, Mean of 2, human liver microsomes with NADPH): 81%
half-life at 2 µM ([3]; pH 7.4, t1/2: half-time of a metabolic decomposition, human liver microsomes, 2 μM compound, NADPH, 37 °C): 1.78 h
CLint [4]: 16
t1/2: half-time of a metabolic decomposition ([4]; 2 μM compound, NADPH, 37 °C): ~1.785 h
solubility kinetic at 2 h [5]: 113 µM (≈ 59.4 µg/mL)
Structure (SMILES): Cc1ccc(NC(=O)C23CCC(CN4CCN(C)CC4)(CC2)CC3)cc1Nc1nccc(-c2cccnc2)n1 [Compound 86]
inhibitory effect on the catalytic activity of ABL1 kinase (in words) ([1]; ADP-Glo Kinase Assay, 12 concentration points): did not observe any significant inhibitory effect; also recorded: inactive

pKa [6]: 4.5
Structure (SMILES): Cc1ccc(C(=O)O)cc1 [Compound 83, para-methyl benzoic acid, reference compound]

pKa [6]: 4.4
chemical stability in acid ([7]; aq. 1 M HCl, room temperature, 1 h): no decomposition
chemical stability in base ([7]; aq. 1 M NaOH, room temperature, 1 h): no decomposition
thermal stability ([7]; heating at 100 °C for five minutes): remained stable
stability on storage ([7]; in air, room temperature, closed vials, one year, 1H NMR): no changes
Structure (SMILES): CC12CCC(C(=O)O)(CC1)CO2 [Compound 47]

pKa [6]: 5.6
Structure (SMILES): CC12CCC(C(=O)O)(CC1)CC2 [Compound 84, reference compound]

Source: paper PMC10545790
